What was measured:
[1] = system: normal NK cells expanded with K562-aAPC; assay: percent inhibition of viability; higher = more inhibition; details: 72 h, IL-2 2.5 ng/mL
Procedure: (§1)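 Drug sensitivity and resistance testing on K562-aAPC-expanded normal NK cells: 5 concentrations (10-fold steps over a 10,000-fold range), 72 h at 37 °C, viability by CellTiter-Glo normalised to DMSO and benzethonium chloride controls; DSS from the fitted curve.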

DERL-7 (IL-2 2.5 ng/mL) [2] = assay: as above; details: 72 h
IMC-1 (IL-2 20 ng/mL) [3] = assay: as above; details: 72 h
KAI3 (IL-2 2.5 ng/mL) [4] = assay: as above; details: 72 h
KHYG-1 (IL-2 2.5 ng/mL) [5] = assay: as above; details: 72 h
NK-92 (IL-2 2.5 ng/mL) [6] = assay: as above; details: 72 h
NK-YS (IL-2 2.5 ng/mL) [7] = assay: as above; details: 72 h
NKL (IL-2 2.5 ng/mL) [8] = assay: as above; details: 72 h
SNK-6 (IL-2 2.5 ng/mL) [9] = assay: as above; details: 72 h
YT (IL-2 2.5 ng/mL) [10] = assay: as above; details: 72 h
[11] = system: normal primary NK cells, pool 1 (3 donors) (IL-2 2.5 ng/mL); assay: as above; details: 72 h
[12] = system: normal primary NK cells, pool 1 (3 donors), resting (IL-2 0 ng/mL); assay: as above; details: 72 h
[13] = system: normal primary NK cells, pool 2 (3 donors) (IL-2 2.5 ng/mL); assay: as above; details: 72 h
[14] = system: normal primary NK cells, pool 3 (3 donors) (IL-2 2.5 ng/mL); assay: as above; details: 72 h
[15] = system: normal NK cells expanded with K562-aAPC; assay: drug sensitivity score (DSS) (DSS units); higher = more sensitive; extreme values may be limits of the assay; details: 72 h; IL-2 2.5 ng/mL
Procedure: as §1

DERL-7 (IL-2 2.5 ng/mL) [16] = assay: as above; details: 72 h
IMC-1 (IL-2 20 ng/mL) [17] = assay: as above; details: 72 h
KAI3 (IL-2 2.5 ng/mL) [18] = assay: as above; details: 72 h
KHYG-1 (IL-2 2.5 ng/mL) [19] = assay: as above; details: 72 h
NK-92 (IL-2 2.5 ng/mL) [20] = assay: as above; details: 72 h
NK-YS (IL-2 2.5 ng/mL) [21] = assay: as above; details: 72 h
NKL (IL-2 2.5 ng/mL) [22] = assay: as above; details: 72 h
SNK-6 (IL-2 2.5 ng/mL) [23] = assay: as above; details: 72 h
YT (IL-2 2.5 ng/mL) [24] = assay: as above; details: 72 h
[25] = system: normal primary NK cells, pool 1 (3 donors) (IL-2 2.5 ng/mL); assay: as above; details: 72 h
[26] = system: normal primary NK cells, pool 1 (3 donors), resting (IL-2 0 ng/mL); assay: as above; details: 72 h
[27] = system: normal primary NK cells, pool 2 (3 donors) (IL-2 2.5 ng/mL); assay: as above; details: 72 h
[28] = system: normal primary NK cells, pool 3 (3 donors) (IL-2 2.5 ng/mL); assay: as above; details: 72 h

Nc1cc(F)ccc1NC(=O)/C=C/c1cnn(C/C=C/c2ccccc2)c1 [RGFP966] (max concentration tested 10000 nM)
percent inhibition of viability ([1]; 1 nM): 4.29% | percent inhibition of viability ([1]; 10 nM): 0.23% | percent inhibition of viability ([1]; 100 nM): 1.76% | percent inhibition of viability ([1]; 1000 nM): 9.82% | percent inhibition of viability ([1]; 10000 nM): 9.19% | percent inhibition of viability (DERL-7 (IL-2 2.5 ng/mL) [2]; 1 nM): -5.83% | percent inhibition of viability (DERL-7 (IL-2 2.5 ng/mL) [2]; 10 nM): -2.09% | percent inhibition of viability (DERL-7 (IL-2 2.5 ng/mL) [2]; 100 nM): 9.7% | percent inhibition of viability (DERL-7 (IL-2 2.5 ng/mL) [2]; 1000 nM): 22.7% | percent inhibition of viability (DERL-7 (IL-2 2.5 ng/mL) [2]; 10000 nM): 77.1% | percent inhibition of viability (IMC-1 (IL-2 20 ng/mL) [3]; 1 nM): -2.38% | percent inhibition of viability (IMC-1 (IL-2 20 ng/mL) [3]; 10 nM): 0.66% | percent inhibition of viability (IMC-1 (IL-2 20 ng/mL) [3]; 100 nM): 0.87% | percent inhibition of viability (IMC-1 (IL-2 20 ng/mL) [3]; 1000 nM): 7.16% | percent inhibition of viability (IMC-1 (IL-2 20 ng/mL) [3]; 10000 nM): 19.2% | percent inhibition of viability (KAI3 (IL-2 2.5 ng/mL) [4]; 1 nM): 3.23% | percent inhibition of viability (KAI3 (IL-2 2.5 ng/mL) [4]; 10 nM): 7.54% | percent inhibition of viability (KAI3 (IL-2 2.5 ng/mL) [4]; 100 nM): 1.59% | percent inhibition of viability (KAI3 (IL-2 2.5 ng/mL) [4]; 1000 nM): 11.1% | percent inhibition of viability (KAI3 (IL-2 2.5 ng/mL) [4]; 10000 nM): 70.5% | percent inhibition of viability (KHYG-1 (IL-2 2.5 ng/mL) [5]; 1 nM): -1.2% | percent inhibition of viability (KHYG-1 (IL-2 2.5 ng/mL) [5]; 10 nM): 0.69% | percent inhibition of viability (KHYG-1 (IL-2 2.5 ng/mL) [5]; 100 nM): 1.5% | percent inhibition of viability (KHYG-1 (IL-2 2.5 ng/mL) [5]; 1000 nM): 8.74% | percent inhibition of viability (KHYG-1 (IL-2 2.5 ng/mL) [5]; 10000 nM): 43.4% | percent inhibition of viability (NK-92 (IL-2 2.5 ng/mL) [6]; 1 nM): 3.38% | percent inhibition of viability (NK-92 (IL-2 2.5 ng/mL) [6]; 10 nM): 1.97% | percent inhibition of viability (NK-92 (IL-2 2.5 ng/mL) [6]; 100 nM): 18.1% | percent inhibition of viability (NK-92 (IL-2 2.5 ng/mL) [6]; 1000 nM): 20.7% | percent inhibition of viability (NK-92 (IL-2 2.5 ng/mL) [6]; 10000 nM): 79.9% | percent inhibition of viability (NK-YS (IL-2 2.5 ng/mL) [7]; 1 nM): -1.47% | percent inhibition of viability (NK-YS (IL-2 2.5 ng/mL) [7]; 10 nM): 0.43% | percent inhibition of viability (NK-YS (IL-2 2.5 ng/mL) [7]; 100 nM): 1.84% | percent inhibition of viability (NK-YS (IL-2 2.5 ng/mL) [7]; 1000 nM): 5.06% | percent inhibition of viability (NK-YS (IL-2 2.5 ng/mL) [7]; 10000 nM): 33.6% | percent inhibition of viability (NKL (IL-2 2.5 ng/mL) [8]; 1 nM): -2.36% | percent inhibition of viability (NKL (IL-2 2.5 ng/mL) [8]; 10 nM): 10.4% | percent inhibition of viability (NKL (IL-2 2.5 ng/mL) [8]; 100 nM): 5.66% | percent inhibition of viability (NKL (IL-2 2.5 ng/mL) [8]; 1000 nM): 29.4% | percent inhibition of viability (NKL (IL-2 2.5 ng/mL) [8]; 10000 nM): 82.3% | percent inhibition of viability (SNK-6 (IL-2 2.5 ng/mL) [9]; 1 nM): 6.08% | percent inhibition of viability (SNK-6 (IL-2 2.5 ng/mL) [9]; 10 nM): 7.31% | percent inhibition of viability (SNK-6 (IL-2 2.5 ng/mL) [9]; 100 nM): 9.67% | percent inhibition of viability (SNK-6 (IL-2 2.5 ng/mL) [9]; 1000 nM): 21% | percent inhibition of viability (SNK-6 (IL-2 2.5 ng/mL) [9]; 10000 nM): 62.2% | percent inhibition of viability (YT (IL-2 2.5 ng/mL) [10]; 1 nM): -2.17% | percent inhibition of viability (YT (IL-2 2.5 ng/mL) [10]; 10 nM): -1.29% | percent inhibition of viability (YT (IL-2 2.5 ng/mL) [10]; 100 nM): 1.57% | percent inhibition of viability (YT (IL-2 2.5 ng/mL) [10]; 1000 nM): 1.53% | percent inhibition of viability (YT (IL-2 2.5 ng/mL) [10]; 10000 nM): 26.1% | percent inhibition of viability ([11]; 1 nM): -6.12% | percent inhibition of viability ([11]; 10 nM): -12% | percent inhibition of viability ([11]; 100 nM): 2.42% | percent inhibition of viability ([11]; 1000 nM): -14.4% | percent inhibition of viability ([11]; 10000 nM): -7.06% | percent inhibition of viability ([12]; 1 nM): 0.87% | percent inhibition of viability ([12]; 10 nM): -9.67% | percent inhibition of viability ([12]; 100 nM): -2.19% | percent inhibition of viability ([12]; 1000 nM): -2.37% | percent inhibition of viability ([12]; 10000 nM): 16.1% | percent inhibition of viability ([13]; 1 nM): -11.2% | percent inhibition of viability ([13]; 10 nM): -8.68% | percent inhibition of viability ([13]; 100 nM): 8.11% | percent inhibition of viability ([13]; 1000 nM): 0.44% | percent inhibition of viability ([13]; 10000 nM): 9.58% | percent inhibition of viability ([14]; 1 nM): -1.19% | percent inhibition of viability ([14]; 10 nM): -0.09% | percent inhibition of viability ([14]; 100 nM): 10.8% | percent inhibition of viability ([14]; 1000 nM): -6.25% | percent inhibition of viability ([14]; 10000 nM): 4.39% | drug sensitivity score [15]: 0 | drug sensitivity score (DERL-7 (IL-2 2.5 ng/mL) [16]): 7.16 | drug sensitivity score (IMC-1 (IL-2 20 ng/mL) [17]): 1.17 | drug sensitivity score (KAI3 (IL-2 2.5 ng/mL) [18]): 5.75 | drug sensitivity score (KHYG-1 (IL-2 2.5 ng/mL) [19]): 3.64 | drug sensitivity score (NK-92 (IL-2 2.5 ng/mL) [20]): 6.98 | drug sensitivity score (NK-YS (IL-2 2.5 ng/mL) [21]): 2.39 | drug sensitivity score (NKL (IL-2 2.5 ng/mL) [22]): 8.18 | drug sensitivity score (SNK-6 (IL-2 2.5 ng/mL) [23]): 5.69 | drug sensitivity score (YT (IL-2 2.5 ng/mL) [24]): 1.24 | drug sensitivity score [25]: 0 | drug sensitivity score [26]: 0.22 | drug sensitivity score [27]: 0 | drug sensitivity score [28]: 0

From the supplement of paper PMC5908809
